pIC50: −log10 of the molar value. Numbered stars: 1 amine (or outer) side, 2 acyl side, 3 side chain; on linkers, the order of the positions; unused ones are H or OH. Bridge positions count the residues as written; N and C are the ends. Square brackets hold non-standard residues; d marks the D form. Peptide text beside a SMILES is read from it. * marks the point of attachment. hPhe(3-Cl-4-CF3) = N[C@@H](CCc1ccc(C(F)(F)F)c(Cl)c1)C(=O)O; hPhe(3-F,4-CF3) = N[C@@H](CCc1ccc(C(F)(F)F)c(F)c1)C(=O)O; NMePhe(4-CF3) = CN[C@@H](Cc1ccc(C(F)(F)F)cc1)C(=O)O; ACHC(1R,2R) = O=C([C@@H]1CCCC[C@H]1N[*:1])[*:2]; NMeAbu(4,4,4-F3) = CN[C@@H](CC(F)(F)F)C(=O)O; NMePhe(3-Cl) = CN[C@@H](Cc1cccc(Cl)c1)C(=O)O; X51 = CN([C@@](C)(Cc1ccccc1)C(=O)[*:2])[*:1]; NMePhe(4-Me) = CN[C@@H](Cc1ccc(C)cc1)C(=O)O; NMeNle(6-CHF2) = CN[C@@H](CCCCC(F)F)C(=O)O; Phe(3-I) = N[C@@H](Cc1cccc(I)c1)C(=O)O; Pro(4,4-F2) = O=C(O)[C@@H]1CC(F)(F)CN1; X26 = CC(C)=CC[C@H](N[*:1])C(=O)[*:2]; NMehPhe = CN[C@@H](CCc1ccccc1)C(=O)O; NMeGly(cBu) = CN[C@H](C(=O)O)C1CCC1; NMeY = CN[C@@H](Cc1ccc(O)cc1)C(=O)O; NMeCha = CN[C@@H](CC1CCCCC1)C(=O)O; NMeChg = CN[C@H](C(=O)O)C1CCCCC1; NMeD = CN[C@@H](CC(=O)O)C(=O)O; NMeL = CN[C@@H](CC(C)C)C(=O)O; NMeV = CN[C@H](C(=O)O)C(C)C; d(β3hA) = C[C@@H](N)CC(=O)O; Ac6c = NC1(C(=O)O)CCCCC1; NMeAib = CNC(C)(C)C(=O)O; Nle = CCCC[C@H](N)C(=O)O; Piperidide = C1CCN(*)CC1; Pyrrolidide = C1CCN(*)C1; Ac5c = NC1(C(=O)O)CCCC1; Aze = O=C(O)[C@@H]1CCN1; Aib = CC(C)(N)C(=O)O; Sar = CNCC(=O)O
The compounds below were run on Human pancreatic cancer cell line AsPC-1 (G12D mutation Kras) (assay: AsPC-1 cell growth inhibition (AsPC-1 CGI)). Conditions: read-out: AsPC-1 cell growth inhibition, 50% growth inhibitory concentration (IC50 value); 96 hours, CellTiter-Glo, values classified in ranges.
Assay type: cell-based
Description: Test compounds were serially dilated with dimethyl sulfoxide, and 200 nL was then dispensed to a U-bottom 96-well plate using Labcyte Echo. […] The cell suspension was dispensed to a. plate containing a test compound at 100 μL per well and incubated at 37° C. in a 5% carbon dioxide gas incubator. 96 hours later, 80 μL of CellTiter-Glo (Promega) was added to each well and fluorescence was measured.

Compound	pIC50
CC[C@H](C)[C@@H]1NC(=O)[C@H](CC(C)C)N(C)C(=O)C[C@@H](C)NC(=O)[C@H](C(C)C)N(C)C(=O)C2(CCCC2)NC(=O)[C@@H]2CCCN2C(=O)[C@H](CCc2ccc(C(F)(F)F)c(Cl)c2)NC(=O)CN(C)C(=O)[C@H](Cc2cccc(Cl)c2)N(C)C(=O)CN(C)C(=O)CN(C)C1=O [Compound 1623] (cyclo([Ac5c][NMeV][d(β3hA)][NMeL]I[Sar][Sar][NMePhe(3-Cl)][Sar][hPhe(3-Cl-4-CF3)]P))	< 6.30
CC[C@H](C)[C@@H]1NC(=O)[C@H](CC(C)C)N(C)C(=O)C[C@@H](C(=O)N2CCCCC2)N(C)C(=O)[C@H](CC(C)C)NC(=O)C(C)(C)N(C)C(=O)[C@H](Cc2ccc(OC)cc2)NC(=O)[C@H](Cc2cccc(I)c2)NC(=O)CN(C)C(=O)[C@H](Cc2ccc(C)cc2)N(C)C(=O)[C@@H]2CCN2C(=O)CN(C)C1=O [Compound 188] ([NMeL]I[Sar][Aze][NMePhe(4-Me)][Sar][Phe(3-I)]Y(Me)[NMeAib]L[NMeD]-Piperidide; lactam N-11)	< 6.30
CC[C@H](C)[C@@H]1NC(=O)[C@H](CC(C)C)N(C)C(=O)C[C@@H](C(=O)N2CCCCC2)N(C)C(=O)[C@H](CC(C)C)NC(=O)C(C)(C)N(C)C(=O)[C@H](Cc2ccc(OC)cc2)NC(=O)[C@H](Cc2cccc(I)c2)NC(=O)CN(C)C(=O)[C@H](CC2CCCCC2)N(C)C(=O)CN(C)C(=O)CN(C)C1=O [Compound 320] ([NMeL]I[Sar][Sar][NMeCha][Sar][Phe(3-I)]Y(Me)[NMeAib]L[NMeD]-Piperidide; lactam N-11)	< 6.30
CC[C@H](C)[C@@H]1NC(=O)[C@H](CC(C)C)NC(=O)[C@@H]2CCCC[C@H]2NC(=O)[C@H](C(C)C)N(C)C(=O)C2(CCCC2)NC(=O)[C@@H]2CCCN2C(=O)[C@H](CCc2ccc(C(F)(F)F)c(Cl)c2)NC(=O)CN(C)C(=O)[C@H](CC2CCCCC2)N(C)C(=O)CN(C)C(=O)CN(C)C1=O [Compound 569] (cyclo([Ac5c][NMeV][ACHC(1R,2R)]LI[Sar][Sar][NMeCha][Sar][hPhe(3-Cl-4-CF3)]P))	< 6.30
CC(C)=CC[C@@H]1NC(=O)[C@H](CC(C)C)N(C)C(=O)C[C@@H](C(=O)N2CCCCC2)N(C)C(=O)[C@H](C2CCCCC2)N(C)C(=O)C2(CCCC2)NC(=O)[C@@H]2CCCN2C(=O)[C@H](CCc2ccc(C(F)(F)F)c(Cl)c2)NC(=O)CN(C)C(=O)[C@H](CC2CCCCC2)N(C)C(=O)CN(C)C(=O)CN(C)C1=O [Compound 1134] ([NMeL][X26][Sar][Sar][NMeCha][Sar][hPhe(3-Cl-4-CF3)]P[Ac5c][NMeChg][NMeD]-Piperidide; lactam N-11)	< 6.30
CC[C@H](C)[C@@H]1NC(=O)[C@H](CC(F)(F)F)N(C)C(=O)C[C@@H](C(=O)N2CCCC2)N(C)C(=O)[C@H](C2CCCCC2)N(C)C(=O)C2(CCCC2)NC(=O)[C@@H]2CC(F)(F)CN2C(=O)[C@H](CCc2ccc(C(F)(F)F)c(Cl)c2)NC(=O)CN(C)C(=O)[C@H](Cc2ccc(C(F)(F)F)cc2)N(C)C(=O)CN(C)C(=O)CN(C)C1=O [Compound 1196] ([NMeAbu(4,4,4-F3)]I[Sar][Sar][NMePhe(4-CF3)][Sar][hPhe(3-Cl-4-CF3)][Pro(4,4-F2)][Ac5c][NMeChg][NMeD]-Pyrrolidide; lactam N-11)	≥ 7.70
CC[C@H](C)[C@@H]1NC(=O)[C@H](CC(C)C)N(C)C(=O)C[C@@H](C)NC(=O)[C@H](CC(C)C)N(C)C(=O)C(C)(C)NC(=O)[C@H](CC(C)C)N(C)C(=O)[C@H](CCc2ccc(C(F)(F)F)c(F)c2)NC(=O)CN(C)C(=O)[C@H](CCCCC(F)F)N(C)C(=O)CN(C)C(=O)CN(C)C1=O [Compound 1526] (cyclo([Aib][NMeL][d(β3hA)][NMeL]I[Sar][Sar][NMeNle(6-CHF2)][Sar][hPhe(3-F,4-CF3)][NMeL]))	< 6.30
CC[C@H](C)[C@@H]1NC(=O)[C@H](CC(C)C)N(C)C(=O)C[C@@H](C)NC(=O)[C@H](C(C)C)N(C)C(=O)C2(CCCC2)NC(=O)[C@@H]2CCCN2C(=O)[C@H](CCc2ccc(C(F)(F)F)c(Cl)c2)NC(=O)CN(C)C(=O)[C@H](CCc2ccccc2)N(C)C(=O)CN(C)C(=O)CN(C)C1=O [Compound 1627] (cyclo([Ac5c][NMeV][d(β3hA)][NMeL]I[Sar][Sar][NMehPhe][Sar][hPhe(3-Cl-4-CF3)]P))	< 6.30
CCCC[C@@H]1NC(=O)[C@H](Cc2cccc(I)c2)NC(=O)CN(C)C(=O)[C@H](Cc2ccc(OC)cc2)N(C)C(=O)CN(C)C(=O)CN(C)C(=O)[C@H]([C@@H](C)CC)NC(=O)[C@H](CC(C)C)N(C)C(=O)C[C@@H](C(=O)N2CCCCC2)N(C)C(=O)[C@H](CC(C)C)NC(=O)[C@](C)(Cc2ccccc2)N(C)C1=O [Compound 125] ([NMeL]I[Sar][Sar][NMeY](Me)[Sar][Phe(3-I)][Nle][X51]L[NMeD]-Piperidide; lactam N-11)	< 6.30
CC[C@H](C)[C@@H]1NC(=O)[C@H](CC(C)C)N(C)C(=O)C[C@@H](C(=O)N2CCCCC2)N(C)C(=O)[C@H](C2CCCCC2)N(C)C(=O)[C@H](C(C)C)NC(=O)[C@@H]2CCCN2C(=O)[C@H](CCc2ccc(C(F)(F)F)c(Cl)c2)NC(=O)CN(C)C(=O)[C@H](CC2CCCCC2)N(C)C(=O)CN(C)C(=O)CN(C)C1=O [Compound 1157] ([NMeL]I[Sar][Sar][NMeCha][Sar][hPhe(3-Cl-4-CF3)]PV[NMeChg][NMeD]-Piperidide; lactam N-11)	< 6.30
CC[C@H](C)[C@@H]1NC(=O)[C@H](CC(C)C)N(C)C(=O)C[C@@H](C)NC(=O)[C@H](C2CCCCC2)N(C)C(=O)C2(CCCC2)NC(=O)[C@@H]2CCCN2C(=O)[C@H](CCc2ccc(C(F)(F)F)c(Cl)c2)NC(=O)CN(C)C(=O)[C@H](CC2CCCCC2)N(C)C(=O)CN(C)C(=O)CN(C)C1=O [Compound 593] (cyclo([Ac5c][NMeChg][d(β3hA)][NMeL]I[Sar][Sar][NMeCha][Sar][hPhe(3-Cl-4-CF3)]P))	< 6.30
CC[C@H](C)[C@@H]1NC(=O)[C@H](CC(C)C)N(C)C(=O)C[C@@H](C)NC(=O)[C@H](C(C)C)N(C)C(=O)C(C)(C)NC(=O)[C@@H]2CCCN2C(=O)[C@H](CCc2ccc(C(F)(F)F)c(Cl)c2)NC(=O)CN(C)C(=O)[C@H](CC2CCCCC2)N(C)C(=O)CN(C)C(=O)CN(C)C1=O [Compound 641] (cyclo([Aib][NMeV][d(β3hA)][NMeL]I[Sar][Sar][NMeCha][Sar][hPhe(3-Cl-4-CF3)]P))	< 6.30
CC[C@H](C)[C@@H]1NC(=O)[C@H](CC(C)C)N(C)C(=O)C[C@@H](C)NC(=O)[C@H](CC(C)C)N(C)C(=O)C2(CCCCC2)NC(=O)[C@@H]2CCCN2C(=O)[C@H](CCc2ccc(C(F)(F)F)c(F)c2)NC(=O)CN(C)C(=O)[C@H](CC2CCCCC2)N(C)C(=O)CN(C)C(=O)CN(C)C1=O [Compound 231] (cyclo([Ac6c][NMeL][d(β3hA)][NMeL]I[Sar][Sar][NMeCha][Sar][hPhe(3-F,4-CF3)]P))	< 6.30
CC[C@H](C)[C@@H]1NC(=O)[C@H](CC(C)C)N(C)C(=O)C[C@@H](C)NC(=O)[C@H](C2CCC2)N(C)C(=O)C2(CCCC2)NC(=O)[C@@H]2CCCN2C(=O)[C@H](CCc2ccc(C(F)(F)F)c(Cl)c2)NC(=O)CN(C)C(=O)[C@H](CC2CCCCC2)N(C)C(=O)CN(C)C(=O)CN(C)C1=O [Compound 183] (cyclo([Ac5c][NMeGly(cBu)][d(β3hA)][NMeL]I[Sar][Sar][NMeCha][Sar][hPhe(3-Cl-4-CF3)]P))	< 6.30

From patent US20240148821A1, “PHARMACEUTICAL USE OF CYCLIC PEPTIDE COMPOUND” (CHUGAI SEIYAKU KABUSHIKI KAISHA, priority 2021, published 2024)
